Measurements: US11413278B2, “Compounds and methods for promoting stress resistance” (priority 2015, dated 2022)
pEC50: −log10 of the molar value. Like-named read-outs stand apart in the source and are kept apart here.

Tests used:
FOXO3 = FOXO3 siRNA knockdown: dependency for H2O2-resistance; type: cell-based, human; conditions: for FOXO3-dependency for H2O2-resistance (experiment 3): with & without H2O2, FOXO3 knockdown in WI-38 cells
mTOR = mTOR inhibition (RPS6 phosphorylation status), In-Cell Western; type: cell-based, human
Outline: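 WI-38 cells exposed to compounds at 5, 10 and 20 μM for 24 hrs. Fixed cells co-stained overnight at 4° C with anti-RPS and anti-pRPS6 (Ser-235/236) antibodies, then DyLight 680/800 secondaries. Phospho-RPS6 relative to total RPS6 read by near-infrared In-Cell Western imaging.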

[1] = test system: phosphorylated γH2A.X and TP53BP1; assay: DNA damage marker analysis (immuno-staining); conditions: for activity at 10 µM: Homo sapiens, WI-38, 24 h; for P = Potential DNA-damaging / R = Potential DNA damaging: human, 24 h
Outline: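 WI-38 cells were cultured 24 h, then treated with compounds for 24 h; H2O2 (700 μM, 3 h) and doxorubicin (300 nM, 24 h) served as DNA-damage controls. After fixation, cells were immunostained for phospho-γH2A.X (Ser-139) and phospho-TP53BP1 (Ser-1778), counterstained with DAPI, and imaged by automated high-content microscopy.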

WI-38 cells = conditions: for No H2O2 stress treatment, at 10 uM (fold change): normalized ATP measurement; for Assay 1: H2O2-resistant: YES/NO, if NO, possibly due to repeated freezing/thawing of stocks
[2] = read-out: Experiment 1, H2A.X-P DNA damage foci staining (no H2O2 stress treatment), at 10 uM
[3] = read-out: Experiment 2, H2A.X-P DNA damage foci staining (no H2O2 stress treatment), at 10 uM
[4] = read-out: Experiment 2, H2A.X-P DNA damage foci staining (under H2O2 stress treatment), at 10 uM
[5] = read-out: Experiment 2, TP53BP1-P DNA damage foci staining (no H2O2 stress treatment), at 10 uM
[6] = read-out: Experiment 2, TP53BP1-P DNA damage foci staining (under H2O2 stress treatment), at 10 uM
[7] = WI-38 cells, 10 μM, (*) = compromised ability to protect cells from H2O2, could be due to stability issue
[8] = asterisks indicate the loss of the ability to protect cells from H2O2 over time
[9] = derived from dose response curves, 0.6-20 uM, H2O2-resistance of WI-38 cells
[10] = read-out: Est. ED50, dose response 0.6-20 μM, H2O2-resistance
[11] = 10 uM, YES = resistance reduced by at least 50%, partial = 25% to 50%

Structure (SMILES)	I = FOXO3-dependency for H2O2-resistance (FOXO3; score)	I = FOXO3-dependency for H2O2-resistance (FOXO3; summary score)	G = mTOR down-regulation (mTOR; 2-point score)	G = mTOR down-regulation (mTOR; summary score)	activity at 10 µM [1, 2] [%]	activity at 10 µM [1, 3] [%]	activity at 10 µM [1, 4] [%]	activity at 10 µM [1, 5] [%]	activity at 10 µM [1, 6] [%]	P = Potential DNA-damaging [1]	R = Potential DNA damaging [1]	H2O2-resistant (WI-38 cells; [7])	No H2O2 stress treatment, at 10 uM (fold change) (WI-38 cells; WI-38 cells)	Assay 1: H2O2-resistant (WI-38 cells)	H2O2-resistant (WI-38 cells; [8])	pEC50 (WI-38 cells; [9])	pEC50 (WI-38 cells; [10])	FOXO3-dependency for H2O2-resistance, at 10 uM (experiment 3) - with & without H2O2 (FOXO3; 10 uM)	FOXO3-dependency for H2O2-resistance (experiment 3) (FOXO3; [11])	also measured
O=C(c1ccc([N+](=O)[O-])o1)N1CCc2ccccc21 [O13]	0	0	0	0	145	98.3	152	238	673	0	0	YES	1.09 fold change	YES	YES	5.00	5.00	–	–	–
O=C(Nc1nc(C23CC4CC(CC(C4)C2)C3)cs1)C(c1ccccc1)c1ccccc1 [O10]	0	0	0	0	102	71.5	153	135	498	0	0	YES	1.08 fold change	YES	YES	5.02	5.02	–	–	–
CCc1ccc(Oc2nc3ccccn3c(=O)c2/C=C(\C#N)C(=O)NC2CCCCC2)cc1 [Gr-5A]	0	0	0	0	105	115	127	147	548	0	0	YES	1.14 fold change	–	YES	–	4.99	–	–	–
COc1ccc(/C=C2\SC(=N)N(c3nccs3)C2=O)cc1 [O21]	0	0	0	0	161	216	127	196	620	1	1	YES	0.92 fold change	–	YES	4.74	4.74	YES	YES	–
CC1C(=O)C(C)C(c2cc(Cl)ccc2O)NC1c1cc(Cl)ccc1O (stereo not shown) [O6]	0	0	0	0	122	87.7	130	86.3	538	0	0	YES	1.07 fold change	YES	YES	5.01	5.01	–	–	–
O=C(NCc1cccnc1)/C(=C/c1ccc(-c2ccc(Cl)cc2)o1)S(=O)(=O)c1ccccc1 [Gr-7C]	1	1	2	2	132	135	82.9	196	369	0	0	YES	0.87 fold change	YES	YES	4.85	5.59	Partial	Partial	FOXO3-dependency for H2O2-resistance, at 10 uM - with H2O2, 1st experiment (FOXO3; 10 uM, experiment 1 (1st), with H2O2): 1st, YES;; FOXO3-dependency for H2O2-resistance, 1st experiment (FOXO3; 10 uM, with H2O2, FOXO3 knockdown in WI-38 cells, YES = resistance reduced by at least 50%, partial = 25% to 50%): YES;; Assay 16: FOXO3-dependency for H2O2-resistance (FOXO3; 10 uM, YES/NO): YES; Requirement of FOXO3 to promote H2O2-resistance (FOXO3; FOXO3 siRNA, at least 2 of 3 independent experiments): required FOXO3; mTOR down-regulation by p-RPS6 assays (mTOR; Assay 14(q), at 5 uM, 10 uM & 20 uM): YES; Exp. 1, normalized reduction in p-RPS6/RPS6 ratio (mTOR; Exp. 1, In-Cell Western, n=4): ~80% (−), at 20 μM; Exp. 3, normalized reduction in p-RPS6/RPS6 ratio (mTOR; Exp. 3, In-Cell Western, n=4): ~40% (−), at 20 μM; Exp. 3, normalized reduction in p-RPS6/RPS6 ratio (mTOR; Exp. 3, at 5 μM, In-Cell Western, n=4): ~38% (−), at 5 μM;; mTOR inhibition (p-RPS6/RPS6), qualitative (mTOR; In-Cell Western): consistently reduced the ratios
N=C1S/C(=C\c2cn(-c3ccccc3)nc2-c2cccs2)C(=O)N1c1nccs1 [Gr-6C]	0	0	0	0	181	300	43	290	440	1	1	YES (*)	.096 fold change	–	YES (*)	4.79	4.31	–	–	–
O=C1NCCCc2cc(Cl)sc21 [O1]	0	0	0	0	102	104	216	143	336	0	0	YES	0.92 fold change	YES	YES	4.88	4.88	–	–	–
COc1cccc(/C=C2\CN(C)C/C(=C\c3cccc(OC)c3OC)C2=O)c1OC [O23]	0	0	0	0	79.9	326	33.4	42.4	13.2	0	0	YES (*)	0.76 fold change	YES	YES (*)	5.31	5.31	YES	YES	–
CCc1ccccc1NC(=O)c1ccc([N+](=O)[O-])o1 [Gr-1C]	0	0	0	0	217	311	178	375	552	1	1	YES	0.81 fold change	YES	YES	5.10	5.58	–	–	–
